Measurements taken from patent publication US20230026232A1, “AHR INHIBITORS AND USES THEREOF” (Ikena Oncology, Inc., priority 2019, published 2023).
pIC50: −log10 of the molar value.

Columns and labels:
[1] = system: AHR; assay: AHR activity in human and rodent cell lines (summary); type: cell-based
Source text: Compound A is a selective AHR antagonist being developed as an orally administered therapeutic. […] Compound A inhibits CYP1A1 and interleukin (IL)-22 gene expression and leads to an increase in pro-inflammatory cytokines, such as IL-2 and IL-9.

[2] = Glass transition temperature (Tg) by MDSC; type: physicochemical; conditions: for Tg: bulk API, melt-quench amorphous, MDSC
Procedure: DSC was performed using a TA Instruments Discovery DSC2500 differential scanning calorimeter equipped with a TA instruments Refrigerated Cooling System 90 operating in either modulated or ramp mode. DSC was used to measure thermodynamic events and characteristics of Compound A free base and hemi-maleate salt, and subsequent SDIs. Events observed include the glass transition temperature (Tg), cold crystallization (Tc), defined as a crystallization event at a temperature lower than the melt temperature, and melting temperature (Tm). SDI samples were placed in non-hermetic aluminum pans and heated at a constant rate of 2.0° C./min over a 5-200° C. temperature range. The system was purged by nitrogen flow at 50 mL/min to ensure inert atmosphere through the course of measurement. […] Amorphous API was successfully created by rapidly quenching liquefied Compound A using Refrigerated Cooling System 90. The resulting amorphous API was analyzed by modulated DSC. A summary of DSC analysis parameters can be found in Tables 2 and 3.
Thermal properties of both Compound A forms were measured by both DSC and MDSC. […] The Tg of each was measured via a melt-quench technique, heating past its melting temperature and rapidly cooling to trap the molten material in an amorphous state. […] (FIG. 2/Table 11).
Samples were stored at the elevated humidity conditions for 18 hours at ambient temperature before sealing in hermetic pans and analysis by MDSC. Results are reported as a function of relative humidity (RH) in FIG. 13 and Table 20. All lead SDI formulations (HPMCAS-H and PVP VA64 dispersions) have a Tg that is low at elevated humidity conditions and is predicted to require conservative packaging (i.e., desiccant, foil-foil seal, or etc.) to obtain sufficient long-term physical stability of the SDI. To ensure long-term physical stability in open packaging at all ICH conditions, it is desirable that the SDI have a Tg higher than 50° C. at 75% RH, and ideally higher than 60° C. at 75% RH.

[3] = molecular target: T1, AHR (Homo sapiens, UniProt P35869); assay: HepG2 DRE-Luc reporter assay, VAF347-stimulated luciferase expression; type: cell-based; parameters: endogenous in cells; host or cells: HepG2 DRE-Luc reporter cell line; conditions: 80 nM VAF347, n=2
T1 sequence (P35869 11-848): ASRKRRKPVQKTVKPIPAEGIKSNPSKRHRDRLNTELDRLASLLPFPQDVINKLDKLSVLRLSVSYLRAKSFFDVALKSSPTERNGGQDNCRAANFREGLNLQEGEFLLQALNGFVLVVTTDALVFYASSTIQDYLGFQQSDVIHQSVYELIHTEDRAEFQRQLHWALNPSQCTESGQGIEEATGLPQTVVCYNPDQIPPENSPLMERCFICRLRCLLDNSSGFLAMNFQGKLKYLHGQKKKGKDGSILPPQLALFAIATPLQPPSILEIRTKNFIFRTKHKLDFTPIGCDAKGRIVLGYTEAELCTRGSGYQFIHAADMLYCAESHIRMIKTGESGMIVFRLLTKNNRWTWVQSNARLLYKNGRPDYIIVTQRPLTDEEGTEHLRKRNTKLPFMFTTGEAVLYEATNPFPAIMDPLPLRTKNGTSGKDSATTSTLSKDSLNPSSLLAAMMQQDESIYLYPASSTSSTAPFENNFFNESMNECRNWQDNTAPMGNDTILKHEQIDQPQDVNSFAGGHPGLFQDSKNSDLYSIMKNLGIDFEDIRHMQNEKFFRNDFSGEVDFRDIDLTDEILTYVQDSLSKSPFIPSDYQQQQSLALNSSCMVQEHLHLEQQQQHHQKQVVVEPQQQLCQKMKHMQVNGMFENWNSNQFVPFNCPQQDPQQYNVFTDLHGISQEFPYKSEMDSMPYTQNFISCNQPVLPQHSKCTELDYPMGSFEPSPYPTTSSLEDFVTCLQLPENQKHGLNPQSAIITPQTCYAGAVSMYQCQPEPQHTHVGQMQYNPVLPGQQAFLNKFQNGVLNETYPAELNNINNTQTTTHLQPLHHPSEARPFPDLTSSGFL
Procedure: In vitro experiments were conducted to examine the inhibitory activity of Compound A for AHR-mediated transcriptional activation in the HepG2 DRE-Luc reporter cell line. This human hepatoma cell line stably expresses a luciferase reporter gene under control of AHR-responsive DRE enhancer elements (Han, 2004). HepG2 DRE-Luc reporter cells were treated with 80 nM VAF347 to activate AHR.
The inhibitory activity of the human Compound A metabolites, Compound B and Compound C was also determined in the HepG2 DRE-Luc cell line. Reporter cells were stimulated with 80 nM VAF347 and each metabolite at multiple concentrations.

[4] = molecular target: T1, AHR; assay: CYP1A1 expression in CD3/CD28 activated human T cells (qRT-PCR); type: cell-based; parameters: endogenous in cells; conditions: 24 hours
Procedure: AHR plays a key role in immune cells and its' inhibition is proposed to reverse immune suppression and activate T cells. The ability of Compound A to inhibit AHR-dependent CYP1A1 expression and cytokine production was assessed in primary human T cells. AHR directly regulates the expression of the immune suppressive cytokine IL-22. Human T cells isolated from healthy donor PBMCs were activated with CD3/CD28 tetramer and incubated for 24 hours with Compound A. Cell pellets were processed for RNA isolation and CYP1A1 analysis by quantitative reverse-transcriptase polymerase chain reaction. For the cytokine analysis assay, CD3/CD28 activated T cells were treated with Compound A, and culture supernatants were collected after 48 hours for analysis of IL-22 levels using Meso Scale Discovery V-plex IL-22 plates. Compound A inhibited AHR-dependent gene expression in activated human T cells by decreasing expression of CYP1A1 in a concentration-dependent manner.

Work on `CC(C)c1cnn2c(N[C@@H]3CCc4[nH]c5ccccc5c4C3)nc(-c3cncc(F)c3)nc12` [Compound A, (R)—N-(2-(5-fluoropyridin-3-yl)-8-isopropylpyrazolo[1,5-a][1,3,5]triazin-4-yl)-2,3,4,9-tetrahydro-1H-carbazol-3-amine] yielded a pIC50 [1] of 6.82 to 7.46, a Tm/Tg ratio ([2]; K/K, indicator of physical stability) of 1.30 and a Tg ([2]; listed as Compound A Free Base) of 95 °C. For the same compound, the Tg ([2]; listed as free base) was 95 °C, the pIC50 [3] was 7.04 and the pIC50 [4] was 7.20.
